Patent publication US20230234920A1, “Azirine Containing Compounds as Anti-Angiogenesis Agents and a Process for the Preparation Thereof” (COUNCIL OF SCIENTIFIC & INDUSTRIAL RESEARCH, priority 2020, published 2023)

Tests used:
HUVECs = experiment: Capillary-like tube formation assay (tubulogenesis); assay type: cell-based, human; details: for IC50: Homo sapiens, HUVEC, endothelial tubule network assay, anti-angiogenic activity, read-out: IC50 value; for tubule formation: 6 h
How it was run: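 HUVECs seeded on Matrigel (regular or reduced growth factor) in incomplete ECM basal medium, treated with compound for 6 h; VEGF 50 ng/mL positive and sunitinib 50 nM negative controls. Calcein-AM-stained tubules imaged at 10× and tubule length expressed as % of 0.1% DMSO vehicle.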

HCT116 colon tumor = HCT116 colon tumor model in nude mice; assay type: in vivo
Description: FIG. 12 represents Compound 1 inhibited tumor growth in vivo. Tumor sizes were recorded every alternate day by Vernier caliper measurements and calculated as [4/3*[…]*(length/2)*(width/2)]. (A) Nude mice with induced HCT116 tumor were given vehicle to the control group, sunitinib at (40 mg/kg) as a standard drug given orally and Compound 1 at (25 mg/kg) through IP route for 21 days and tumor regression was calculated for all groups. (B) Nude Mice with induced HCT116 colon tumor were given both, sunitinib and Compound 1 at (25 mg/kg) intra-muscularly for 15 days after attaining a tumor size of 100 mm^3, tumor volume reduction for treated groups were calculated and compared with control. Data are expressed as means±S.E.M. (6 mice/group) with significant difference compared with control at p<0.0001.
HCT 116 (Human colon cancer cell line) cells were trypsinised and the pellet was dissolved in ice chilled 1×PBS. HCT 116 cells suspension to a concentration of (1*10^6) cells in 50 μL PBS solution, were left on ice with occasional agitation. Mice were anaesthetized with ketamine: xylazine (100:10 mg/kg), abdominal side area was shaved and sterilized using 70% ethanol. 50 μL of cell suspension was injected slowly subcutaneously to all the mice. After 2 days, booster dose of tumor cells was injected to all mice as performed previously. The growth of the tumor was measured by using vernier caliper on day 2, 4, 6, 8, 10, 12, 14, 16 18, 20, 23 and presented in the form of tumor volume (mm^3)=[4/3*π*(long axis/2)*(short axis/2)]. After attaining a volume of 100 mm^3 of tumor size, all mice were distributed equally (n=6−8) in 3 groups of controls received vehicle (Olive oil). Sutent (25 mg/kg) as a positive control was given orally and Compound 1 (25 mg/kg) dissolved in olive oil was injected intra-muscularly for 15 days and the tumor size regression was measured on every alternate day as described previously. Post 15 days of treatment, mice from all groups were sacrificed and tumor was excised out and processed further for immunohistochemistry and molecular analysis.

chick CAM = experiment: CAM (chick chorio-allantoic membrane) assay; assay type: in vivo; details: 2 μM
Description: (A) Chick CAM assays were used to observe the effect of Compound 1 on angiogenesis in vivo. 1 mm^2 window was made in 8 days old chicken eggs to expose the CAM, and a gelatin disc ([…]) treated with vehicle (0.1% DMSO), sunitinib and Compound 1 at a indicated concentrations were placed on the CAM surface. Post 4 days of incubation, the discs and associated CAM were photographed and excised out, for hemoglobin estimation by drapkin's reagent. (B) Blood vessel density was calculated and Hb. concentration was measured and representative graph was plotted for the control and treatment group and data are represented as mean±SEM with significant difference from control at *p<0.05, **p<0.01 and ***p<0.001.
The eggs were incubated horizontally for 3 days at 37° C. in a 60% humidified atmosphere, using a hybridization incubator (combi-SV 12) with one hour scheduled rotation. Post 3 days of incubation, 2-3 mL of albumin was aspirated from the acute pole of the egg to create false air sac directly over the CAM. Post fertilization (Day 8), a fine blade was used to make an approximate 0.5 cc square incision on the eggshell under sterile conditions and the eggshell window fragment was removed to access the CAM beneath. A piece of gelatin sponge embedded in Compound 1 (500 nM and 250 nM) and sunitinib (2 μM) individually were placed on the CAM of the chicken embryo and incubated for 12 days. Sterile parafilm tape was used to seal back the window and the eggs were further incubated without the rotation setting. After 12 days of incubation the CAM integration was assessed by visual inspection and photographed with a digital camera (Canon EOS); the CAM membrane along with gelatin sponge were harvested and its hemoglobin (Hb.) estimation was done by Drabkin's method according to the manufacturer's protocol (Sigma, St. Louis, Mo.). Absorbance was measured at 540 nm and hemoglobin concentration was calculated.

| melting point [°C] | Compound | IC50 (HUVECs) [nM] | growth of HCT116 cells xenografts (HCT116 colon tumor; 25 mg/kg, 15 days) | tumor volume (HCT116 colon tumor; 40 mg/kg orally for 21 days, vs vehicle) | tumor reduction (HCT116 colon tumor; in comparison to vehicle treated control group, end of experiment) [%] | tubule formation (HUVECs; 20 nM) [%] | tubule formation (HUVECs; 50 nM) [%] | hemoglobin content (chick CAM) [µg/mL] |
| --- | --- | --- | --- | --- | --- | --- | --- | --- |
| 55 to 57 | CCOC(=O)C1N=C1CCc1ccc(OC)c(OC)c1 (stereo not shown) [Compound 34, Ethyl 3-(3,4-dimethoxyphenethyl)-2H-azirine-2-carboxylate] | 250 | – | – | – | – | – | – |
| 119 to 121 | CCOC(=O)C1N=C1/C=C/c1ccc(N(C)C)cc1 (stereo not shown) [Compound 46, Ethyl (E)-3-(4-(dimethylamino)styryl)-2H-azirine-2-carboxylate] | 500 | – | – | – | – | – | – |
| – | Sunitinib Maleate [reference compound] | – | powerful inhibitory effect | progressive significant decrease in tumor volume | 54.58 | 40 | 25 | 100 |
